{"source": "patent US6413967B1", "about": "“Inhibition of novel calcium entry pathway in electrically non-excitable cells acting as an anti-proliferative therapy” (The University of Virginia Patents Foundation, priority 1995, dated 2002)", "type_in_all_cases": "cell-based, human", "key": {"[1]": {"system": "Ca^2+ entry pathway in Jurkat cells", "test": "thapsigargin-stimulated Ca2+ entry measured with Ca2+-sensitive dyes (indo-1, fluo-3)", "method": "Lymphocytes were suspended in culture medium at 37° C. for 1 h in the presence of 1 μM of the Ca^2+ indicator dye indo-1 /AM. Cells were washed twice in buffer A (140 mM NaCl, 3 mM KCl, 1 mM CaCl2, 1 mM MgCl2, 0.1% D-glucose, 1% FBS, 10 mM HEPES, pH 7.4) and were suspended at a final concentration of 1×10^6 cells/ml in buffer A. The excitation wavelength was 340 nm and emission was monitored at 398 nm in an SLM 8000 spectrofluorometer (SLM/Aminco, Urbana, Ill.), with the temperature maintained at 37° C. Data are plotted as relative fluorescence intensity at 398 nm as a measure of [Ca^2+]i. For FIG. 7, indo-1 emission was monitored at 398 nm and 480 nm and [Ca^2+]i was determined as described previously (Gray et al, J. Immunol (1987) 138:63; Haverstick et al, Mol. Biol. Cell (1993) 4:173).\nJurkat cells were loaded with indo-1/AM as described above. The excitation wavelength was 340 nm and emission was measured at 441 nm. The fluorescence of indo-1 at 441 nm is insensitive to changes in [Ca^2+]i (Sage et al, Biochem. J. (1989) 258:923) and is plotted as relative fluorescence intensity.\nBecause amiloride interferes with the fluorescence of indo-1 (Wacholtz et al, J. Immunol. (1992) 149:1912), fluo-3 was used to monitor [Ca^2+]i in the presence of amiloride. Jurkat cells were suspended in culture medium at 37° C. for 1 h in the presence of 1 μM fluo-3/AM and 1 mM probenecid to decrease dye leakage (DiVirgilio et al, Methods Cell Biol. (1989) 31:453). After two washes in buffer A, cells were suspended at a concentration of 1×10^6 cells/ml in buffer A with 1 mM probenecid and were maintained in a cuvette at 37° C. The excitation wavelength was 506 nm and the emission was monitored at 526 nm. Data are presented sa relative fluorescence intensity at 526 nm."}, "[2]": {"system": "VG Ca^2+ current in Jurkat cells", "test": "perforated patch clamp, voltage gated (VG) Ca2+ current", "details": "Homo sapiens, 10 μM NDGA", "method": "All recordings were performed using the perforated patch method (Horn et al, J. Gen. Physiol. (1988) 92:145) of the gigaseal patch clamp technique (Hammil et al, Pflugers Arch (1981) 391:85) with microelectrodes of 5-10 megohm series resistance. In all solutions for voltage clamp, K^+ was replaced with Cs^+ to block outward K^+ currents (Fox et al, J. Physiol. (Lond.) (1987) 392:149). The bath solution contained (in mM): NaCl, 155; CsCl, 4.5; CaCl2, 2; MgCl2, 1; D-glucose, 5; HEPES, 10 (pH 7.4 with NaOH). The pipette solution contained (in mM): CsCl, 55; Cesium methanesulfonate, 70; CaCl2, 1; MgCl2, 7; HEPES, 10 (pH 7.3 with NaOH). Nystatin was made as a stock solution of 6 mg/100 μl DMSO, and 2 μl of the stock was added to 1 ml of the pipette solution for use. Both pipette and bath solutions were 290-300 mOsm. Experiments were performed on cells at room temperature using the Axopatch-1D patch clamp (Axon Instruments, Foster City, Calif.) after correction of junction potentials and leak subtraction. Records were low-pass filtered at 500 Hz, and the data were collected, stored and analyzed using the pClamp software program (Axon Instruments). For the non-voltage gated current traces, data is presented either as the tracing from a chart recorder or from the digital data in which the current was measured at 5 second intervals and plotted as individual points."}, "[3]": {"system": "[Ca^2+]i in Jurkat T cells", "test": "receptor-stimulated Ca2+ influx in Jurkat T cells (anti-CD3 mAb OKT3)", "details": "effect the same post- and pre- T cell receptor stimulation; 10 or 30 μM drug", "method": "Initially, all drugs are screened using Jurkat T cells incubated with indo-1/AM as outlined below. In the event that there is an effect of the drug on the maximum [Ca^2+]i reached following treatment of the cells with the anti-CD3 mAb […], the drug is evaluated for any effects on the spectral characteristics of indo-1 as outlined in Haverstick and Gray, Mol. Biol. Cell (1993) 4:173. If there is an effect of the drug on the spectral characteristics of indo-1 , the drug is further examined for spectral effects on the combination of fura-red and fluo-3. If there is no effect of the drug on the fura-red/fluo-3 combination, the drug is examined for effects on the maximum [Ca^2+]i reached following OKT3 treatment of cells incubated with 5 μM fura-red and […] as outlined below.\nJurkat cells are incubated in RPMI-1640 plus 5% fbs in the presence of the acetoxymethyl ester of either indo-1 (1 μM) or the combination of fura-red (5 μM) with fluo-3 (1 μM) for one hour at 37° C. Cells are washed three times in buffer A [[…] 4-(2-hydroxyethyl)-1-piperazine ethanesulfonic acid (HEPES), pH 7.4, 3 MM KCl, 1 mM MgCl2, 1 mM CaCl2, 140 mM NaCl, 0.1% glucose] containing 1% fbs and suspended to a final concentration of 1×10^6/ml. Cells are then placed in the 37° C. jacketed cell holder of the SLM 8000C. Antigen receptor engagement is mimicked by the addition of the anti-CD3 monoclonal antibody OKT3 (Gray et al, J. Exp. Med. (1988) 167:1963; Gray et al, J. Immunol. 142:1631). The effect of drug added prior to receptor stimulation or at the plateau phase of Ca^2+ entry is determined as follows:\nPrior drug: 10 or 30 μM drug @ 30 seconds, 1 μg/ml OKT3 at 90 seconds\nPost drug: 1 μg/ml OKT3 at 30 second, 10 or 30 μM drug @ 120 seconds"}}}
{"smiles": "CC(Cc1ccc(O)c(O)c1)C(C)Cc1ccc(O)c(O)c1", "note": "(stereo not shown) [NDGA, 4,4′-(2,3-dimethyl-1,4-butanediyl)bis[1,2-benzenediol]]", "values": [{"measurement": "effect on thapsigargin-stimulated Ca^2+ entry", "setting": "[1]; 300 nM thapsigargin, amiloride 100 μM (fluo-3), Ni^2+ 1 mM, NDGA 10 μM (indo-1)", "value": "inhibited Ca^2+ entry"}, {"measurement": "IC50", "setting": "[1]; Homo sapiens, indo-1, n=10, read-out: IC50 for blockade of thapsigargin-stimulated Ca^2+ entry", "value": 5, "unit": "µM"}, {"measurement": "inhibition at 10 µM", "setting": "[2]", "value": "~70", "unit": "%"}, {"measurement": "T cell [Ca^2+]i", "setting": "[3]", "value": "↓"}]}
